Assay results reported in PubChem BioAssay AID1259407 (Chemical Carcinogenesis Research Information System (CCRIS), 2018).
Active and inactive are the calls of the source. How the calls were made is not given here.

Test system: CCRIS mutagenicity, Ames/micronucleus/aberration tests
Assay: CCRIS mutagenicity studies
[1] = Test System: AMES SALMONELLA TYPHIMURIUM, Strain/Indicator: TA98, Metabolic Activation: NONE, Method: STANDARD PLATE
[2] = Test System: AMES SALMONELLA TYPHIMURIUM, Strain/Indicator: TA100, Metabolic Activation: NONE, Method: STANDARD PLATE
[3] = Test System: AMES SALMONELLA TYPHIMURIUM, Strain/Indicator: TA1535, Metabolic Activation: NONE, Method: STANDARD PLATE
[4] = Test System: AMES SALMONELLA TYPHIMURIUM, Strain/Indicator: TA1537, Metabolic Activation: NONE, Method: STANDARD PLATE
[5] = Test System: AMES SALMONELLA TYPHIMURIUM, Strain/Indicator: TA1538, Metabolic Activation: NONE, Method: STANDARD PLATE
[6] = Test System: AMES SALMONELLA TYPHIMURIUM, Strain/Indicator: TA100, Metabolic Activation: RAT, LIVER, S-9, AROCLOR 1254, Method: PREINCUBATION

Compound: CN(C)CCCNc1c2ccccc2nc2ccccc12
- mutagenic call (Test System: AMES SALMONELLA TYPHIMURIUM, Strain/Indicator: TA98(1,8-DNP6), Metabolic Activation: NONE, Method: STANDARD PLATE): inactive; negative
- mutagenic call (Test System: AMES SALMONELLA TYPHIMURIUM, Strain/Indicator: TA98(1,8-DNP6), Metabolic Activation: RAT, LIVER, S-9, Method: STANDARD PLATE): inactive; negative
- mutagenic call (Test System: AMES SALMONELLA TYPHIMURIUM, Strain/Indicator: TA98(NR), Metabolic Activation: NONE, Method: STANDARD PLATE): inactive; negative
- mutagenic call (Test System: AMES SALMONELLA TYPHIMURIUM, Strain/Indicator: TA98(NR), Metabolic Activation: RAT, LIVER, S-9, Method: STANDARD PLATE): active; positive
- mutagenic call [1]: inactive; negative
- mutagenic call (Test System: AMES SALMONELLA TYPHIMURIUM, Strain/Indicator: TA98, Metabolic Activation: RAT, LIVER, S-9, Method: STANDARD PLATE): inactive; negative
- mutagenic call [2]: inactive; negative
- mutagenic call [3]: inactive; negative
- mutagenic call [4]: active; positive
- mutagenic call (Test System: AMES SALMONELLA TYPHIMURIUM, Strain/Indicator: TA1537 PKM101, Metabolic Activation: NONE, Method: STANDARD PLATE): active; positive
- mutagenic call [5]: active; positive
- mutagenic call (Test System: CHINESE HAMSTER V-79, Strain/Indicator: V-79/6-THIOGUANINE, Metabolic Activation: NONE, Method: STANDARD PLATE): inactive; negative
- mutagenic call (Test System: CHINESE HAMSTER V-79, Strain/Indicator: V-79/OUABAIN, Metabolic Activation: NONE, Method: STANDARD PLATE): inactive; negative
- mutagenic call (Test System: Escherichia coli, Strain/Indicator: CC107 (G6 to G7 frameshifts), Metabolic Activation: None, Method: Modified preincubation): active; positive
- mutagenic call (Test System: Escherichia coli, Strain/Indicator: CC108 (G6 to G5 frameshifts), Metabolic Activation: None, Method: Modified preincubation): active; positive
- mutagenic call (Test System: Escherichia coli, Strain/Indicator: CC109 (CG5 to CG4 frameshifts), Metabolic Activation: None, Method: Modified preincubation): active; positive
- mutagenic call (Test System: Escherichia coli, Strain/Indicator: CC111 (A7 to A6 frameshifts), Metabolic Activation: None, Method: Modified preincubation): active; positive

Compound: COc1ccc(-c2nc(-c3ccc(OC)cc3)c(-c3ccc(OC)cc3)[nH]2)cc1
- mutagenic call [1]: active; positive
- mutagenic call (Test System: AMES SALMONELLA TYPHIMURIUM, Strain/Indicator: TA98, Metabolic Activation: RAT LIVER S-9, 3-METHYLCHOLANTHRENE, SODIUM PHENOBARBITAL, Method: STANDARD PLATE): inactive; negative
- mutagenic call [2]: inactive; negative
- mutagenic call (Test System: AMES SALMONELLA TYPHIMURIUM, Strain/Indicator: TA100, Metabolic Activation: RAT LIVER S-9, 3-METHYLCHOLANTHRENE, SODIUM PHENOBARBITAL, Method: STANDARD PLATE): inactive; negative

Compound: Oc1cc(O)c2cc(O)c(-c3cc(O)c(O)c(O)c3)[o+]c2c1
- mutagenic call (Test System: AMES SALMONELLA TYPHIMURIUM, Strain/Indicator: TA98, Metabolic Activation: NONE, Method: PREINCUBATION): inactive; negative
- mutagenic call (Test System: AMES SALMONELLA TYPHIMURIUM, Strain/Indicator: TA98, Metabolic Activation: RAT, LIVER, S-9, AROCLOR 1254, Method: PREINCUBATION): inactive; negative
- mutagenic call (Test System: AMES SALMONELLA TYPHIMURIUM, Strain/Indicator: TA100, Metabolic Activation: NONE, Method: PREINCUBATION): inactive; negative
- mutagenic call [6]: inactive; negative
- mutagenic call (Test System: AMES SALMONELLA TYPHIMURIUM, Strain/Indicator: TA1535, Metabolic Activation: NONE, Method: PREINCUBATION): inactive; negative
- mutagenic call (Test System: AMES SALMONELLA TYPHIMURIUM, Strain/Indicator: TA1535, Metabolic Activation: RAT, LIVER, S-9, AROCLOR 1254, Method: PREINCUBATION): inactive; negative
- mutagenic call (Test System: AMES SALMONELLA TYPHIMURIUM, Strain/Indicator: TA1537, Metabolic Activation: NONE, Method: PREINCUBATION): inactive; negative
- mutagenic call (Test System: AMES SALMONELLA TYPHIMURIUM, Strain/Indicator: TA1537, Metabolic Activation: RAT, LIVER, S-9, AROCLOR 1254, Method: PREINCUBATION): inactive; negative
- mutagenic call (Test System: AMES SALMONELLA TYPHIMURIUM, Strain/Indicator: TA1538, Metabolic Activation: NONE, Method: PREINCUBATION): inactive; negative
- mutagenic call (Test System: AMES SALMONELLA TYPHIMURIUM, Strain/Indicator: TA1538, Metabolic Activation: RAT, LIVER, S-9, AROCLOR 1254, Method: PREINCUBATION): inactive; negative

Compound: CCC/C=N/O
- mutagenic call (Test System: AMES SALMONELLA TYPHIMURIUM, Strain/Indicator: TA98, Metabolic Activation: HAMSTER, LIVER, S-9, AROCLOR 1254, Method: STANDARD PLATE): inactive; negative
- mutagenic call [1]: inactive; negative
- mutagenic call (Test System: AMES SALMONELLA TYPHIMURIUM, Strain/Indicator: TA98, Metabolic Activation: RAT, LIVER, S-9, AROCLOR 1254, Method: STANDARD PLATE): inactive; negative
- mutagenic call (Test System: AMES SALMONELLA TYPHIMURIUM, Strain/Indicator: TA100, Metabolic Activation: HAMSTER, LIVER, S-9, AROCLOR 1254, Method: STANDARD PLATE): inactive; negative
- mutagenic call [2]: inactive; negative
- mutagenic call (Test System: AMES SALMONELLA TYPHIMURIUM, Strain/Indicator: TA100, Metabolic Activation: RAT, LIVER, S-9, AROCLOR 1254, Method: STANDARD PLATE): inactive; negative
- mutagenic call (Test System: AMES SALMONELLA TYPHIMURIUM, Strain/Indicator: TA1535, Metabolic Activation: HAMSTER, LIVER, S-9, AROCLOR 1254, Method: STANDARD PLATE): inactive; negative
- mutagenic call [3]: inactive; negative
- mutagenic call (Test System: AMES SALMONELLA TYPHIMURIUM, Strain/Indicator: TA1535, Metabolic Activation: RAT, LIVER, S-9, AROCLOR 1254, Method: STANDARD PLATE): inactive; negative
- mutagenic call (Test System: AMES SALMONELLA TYPHIMURIUM, Strain/Indicator: TA1537, Metabolic Activation: HAMSTER, LIVER, S-9, AROCLOR 1254, Method: STANDARD PLATE): inactive; negative
- mutagenic call [4]: inactive; negative
- mutagenic call (Test System: AMES SALMONELLA TYPHIMURIUM, Strain/Indicator: TA1537, Metabolic Activation: RAT, LIVER, S-9, AROCLOR 1254, Method: STANDARD PLATE): inactive; negative
- mutagenic call (Test System: AMES SALMONELLA TYPHIMURIUM, Strain/Indicator: TA1538, Metabolic Activation: HAMSTER, LIVER, S-9, AROCLOR 1254, Method: STANDARD PLATE): inactive; negative
- mutagenic call [5]: inactive; negative
- mutagenic call (Test System: AMES SALMONELLA TYPHIMURIUM, Strain/Indicator: TA1538, Metabolic Activation: RAT, LIVER, S-9, AROCLOR 1254, Method: STANDARD PLATE): inactive; negative
- mutagenic call (Test System: MOUSE LYMPHOMA, Strain/Indicator: L5178Y (TK+/TK-), Metabolic Activation: NONE, Method: SUSPENSION/PLATE): active; positive. reevaluation of results: positive
- mutagenic call (Test System: MOUSE LYMPHOMA, Strain/Indicator: L5178Y (TK+/TK-), Metabolic Activation: RAT, LIVER, S-9, AROCLOR 1254, Method: SUSPENSION/PLATE): inactive; negative. reevaluation of results: negative

Compound: Fc1cnc2ccccc2c1
- mutagenic call (End Point: In vitro Chromosomal aberrations, Test System: Chinese hamster lung fibroblast cells (CHL/IU), Metabolic Activation: Rat, liver, S-9): active; positive (information derived from a figure)
- mutagenic call (End Point: In vitro Micronucleus, Test System: Chinese hamster lung fibroblast cells (CHL/IU), Metabolic Activation: Rat, liver, S-9): active; positive (information derived from a figure)
- mutagenic call (Test System: AMES SALMONELLA TYPHIMURIUM, Strain/Indicator: TA100, Metabolic Activation: RAT LIVER S-9, PHENOBARBITAL AND 5,6-BENZOFLAVONE, Method: PREINCUBATION): inactive; negative
- mutagenic call [6]: inactive; negative
- mutagenic call (Test System: AMES SALMONELLA TYPHIMURIUM, Strain/Indicator: TA100, Metabolic Activation: RAT, LIVER, S-9, PHENOBARBITAL AND 5,6-BENZOFLAVONE, Method: PREINCUBATION): inactive; negative
- mutagenic call (Test System: AMES SALMONELLA TYPHIMURIUM, Strain/Indicator: TA100, Metabolic Activation: RAT, LIVER, S-9, PHENOBARBITAL AND 5,6-NAPHTHOFLAVONE, Method: PREINCUBATION): inactive; negative
- mutagenic call (Test System: AMES SALMONELLA, Strain/Indicator: TA100, Metabolic Activation: RAT, LIVER, S-9, PHENOBARBITAL AND 5,6-BENZOFLAVONE, Method: PREINCUBATION): inactive; negative
- mutagenic call (Test System: UDS RODENT HEPATOCYTES, Strain/Indicator: THY INCORP (NON-S-PHASE), Metabolic Activation: NONE, Method: AUTORADIOGRAPHY): inactive; negative
